Where two headings read alike, the source gives them in different places. Marks after values point to notes of the source that are not given here.
Legend:
hCB1R [1] = target: T1, hCB1R (Homo sapiens, UniProt P21554); test: biochemical; assay type: binding
T1 construct: expressed in transfected cells; membranes

hCB1R [2] = target: T1, hCB1R; test: cell-based; assay type: cell-based; settings: for Emax: CHO, read-out: hCB1R Emax, inhibition of FSK-stimulated cAMP accumulation
hCB1R [3] = target: T1, hCB1R; test: cell-based; settings: for Emax: CHO, read-out: hCB1R Emax, recruitment of βarrestin2
hCB2R [4] = target: T2, hCB2R (Homo sapiens, UniProt P34972); test: biochemical
T2 sequence (P34972 whole entry): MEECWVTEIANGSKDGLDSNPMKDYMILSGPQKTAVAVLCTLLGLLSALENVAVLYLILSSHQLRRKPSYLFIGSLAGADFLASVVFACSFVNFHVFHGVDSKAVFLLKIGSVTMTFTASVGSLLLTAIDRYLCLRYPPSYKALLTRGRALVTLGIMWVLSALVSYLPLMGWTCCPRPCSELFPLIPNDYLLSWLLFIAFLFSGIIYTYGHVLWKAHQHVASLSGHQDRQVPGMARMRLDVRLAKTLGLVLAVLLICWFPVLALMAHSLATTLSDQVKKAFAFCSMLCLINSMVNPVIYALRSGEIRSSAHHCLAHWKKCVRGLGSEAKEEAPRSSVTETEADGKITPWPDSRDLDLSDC

C57BL/6 mice [5] = test: Tetrad of assays, overall; settings: doses tested 0.1–10 mg/kg i.p.
hCB2R [6] = target: T2, hCB2R; test: hCB2R-dependent inhibition of FSK-stimulated cAMP accumulation (HitHunter CHO cells); assay type: cell-based; design: expressed in transfected cells; membranes; settings: for Emax: CHO
hCB2R [7] = target: T2, hCB2R; test: hCB2R-dependent recruitment of βarrestin2 (PathHunter CHO cells); assay type: cell-based; design: expressed in transfected cells; membranes; settings: for Emax: CHO
hCB2R [8] = target: T2, hCB2R; test: Ligand bias between cAMP inhibition and βarrestin2 recruitment at hCB2R (operational model); assay type: cell-based; design: expressed in transfected cells; membranes; settings: ∆∆LogR > 0 bias for inhibition of cAMP, < 0 bias for βarrestin2; CP55,940 reference agonist
Protocol: (§1) Figure 8 Analysis of ligand bias for phytocannabinoids at hCB1R (a) and hCB2R (b).
(§2) Concentration–response curves (CRC) were fit using non-linear regression with variable slope (4 parameters) and used to calculate EC50, Emin, and Emax (GraphPad, Prism, v. 8.0). […] In vivo data are presented as % MPE for catalepsy (MPE = 60 s) and anti-nociception (MPE = 20 s), °C for body temperature, and distance travelled (m) and % time in the centre quadrant in 5 min for OFT. Post-hoc analyses were performed using Tukey’s (one-way ANOVA) test. Homogeneity of variance was confirmed using Bartlett’s test. All data were evaluated for possible outliers using Grubb’s test in GraphPad.

hCB2R [9] = target: T2, hCB2R; test: [^3H]CP55,940 displacement from hCB2R CHO cell membranes; settings: for hCB2R Emin: bottom of the concentration–response curve of [^3H]CP55,940 displacement, %CP55,940 response, mean ± SEM; for extent of [^3H]CP55,940 displacement from hCB2R, in words: concentration range 0.1 nM–10 µM
hCB1R [10] = target: T1, hCB1R; test: Ligand bias between cAMP inhibition and βarrestin2 recruitment at hCB1R (operational model); assay type: cell-based; settings: ∆∆LogR > 0 bias for inhibition of cAMP, < 0 bias for βarrestin2; CP55,940 reference agonist
Protocol: as §1, §2

C57BL/6 mice [11] = test: Nociception in the tail flick assay (tetrad); assay type: in vivo
Protocol: (§3) Asterisk colour matches the treatment group assessed.
as §2

C57BL/6 mice [12] = test: Locomotion in the open field test (OFT); assay type: in vivo
Protocol: as §3, §2

C57BL/6 mice [13] = test: Time in the centre quadrant of the OFT (anxiety-like behaviour); assay type: in vivo; settings: 10 mg/kg i.p.; 1 h post-injection
Protocol: as §3, §2

C57BL/6 mice [14] = test: Catalepsy in the ring holding assay (tetrad); assay type: in vivo; settings: 0.1 mg/kg i.p., MPE 60 s = 100%
Protocol: as §3, §2

C57BL/6 mice [15] = test: Body temperature (tetrad); assay type: in vivo; settings: 0.1 mg/kg i.p.
Protocol: as §3, §2

[16] = HitHunter CHO hCB1R cells, 90 min, 95% CI in brackets, read-out: hCB1R EC50, inhibition of FSK-stimulated cAMP accumulation
[17] = PathHunter CHO hCB1R cells, 90 min, 95% CI in brackets, read-out: hCB1R EC50, recruitment of βarrestin2
[18] = HitHunter CHO hCB2R cells, 90 min, 95% CI in brackets, read-out: hCB2R EC50, inhibition of FSK-stimulated cAMP accumulation
[19] = 0.1 nM–10 µM, relative to CP55,940
[20] = PathHunter CHO hCB2R cells, 90 min, 95% CI in brackets, read-out: hCB2R EC50, recruitment of βarrestin2

T1 sequence (P21554 whole entry): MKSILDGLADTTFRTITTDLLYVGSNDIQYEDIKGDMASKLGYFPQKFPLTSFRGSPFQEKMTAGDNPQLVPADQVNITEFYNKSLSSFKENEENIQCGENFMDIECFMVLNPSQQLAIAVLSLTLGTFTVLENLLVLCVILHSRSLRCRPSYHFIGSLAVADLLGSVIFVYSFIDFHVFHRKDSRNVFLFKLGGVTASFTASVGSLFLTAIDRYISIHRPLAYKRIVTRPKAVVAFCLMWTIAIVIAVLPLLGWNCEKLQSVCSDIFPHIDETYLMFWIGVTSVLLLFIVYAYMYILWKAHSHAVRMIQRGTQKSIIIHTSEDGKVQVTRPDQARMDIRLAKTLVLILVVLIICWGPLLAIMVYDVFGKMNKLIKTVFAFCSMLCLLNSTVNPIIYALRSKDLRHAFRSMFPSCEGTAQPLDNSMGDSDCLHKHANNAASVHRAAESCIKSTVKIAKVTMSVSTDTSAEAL

Row | SMILES | Ki (hCB1R [1]) [nM] | extent of [^3H]CP55,940 displacement from hCB1R, in words (hCB1R [1]) | hCB1R Emin (hCB1R [1]) | Emax (hCB1R [2]) [%] | EC50 (hCB1R [2]; [16]) [nM] | Emax (hCB1R [3]) [%] | EC50 (hCB1R [3]; [17]) [nM] | Ki (hCB2R [4]) [nM] | Emax (hCB2R [6]) [%] | EC50 (hCB2R [6]; [18]) [nM] | Emax (hCB2R [7]) [%] | EC50 (hCB2R [7]; [20]) [nM] | ligand bias at hCB2R (∆∆LogR), in words (hCB2R [8]) | hCB2R Emin (hCB2R [9]) | extent of [^3H]CP55,940 displacement from hCB2R, in words (hCB2R [9]) | ligand bias at hCB1R (∆∆LogR), in words (hCB1R [10]) | also measured
1 | C=C(C)[C@@H]1CCC(C)=C[C@H]1c1c(O)cc(CCC)cc1O [CBDV, cannabidivarin] | > 10000 | weakly displaced [^3H]CP55,940 at concentrations ≥ 1 µM | 96 ± 5.1*^ % | 68 ± 5.7 | > 10000 | 0.96 ± 0.75 | > 10000 | 140 | 51 ± 12 | 5 | 64 ± 13 | > 10000 | bias for inhibition of cAMP relative to βarrestin2 | 22 ± 9.3 % | displaced [^3H]CP55,940 from hCB2R to an extent that was not different from CP55,940 |  | in vivo responses in the tetrad assays, in words (C57BL/6 mice [5]): no significant in vivo responses; activity in hCB2R βarrestin2 recruitment, in words (hCB2R [7]; [19]): demonstrable efficacy at hCB2R in the βarrestin2 recruitment assay, but with very low potency
2 | CCCCCc1cc2c(c(O)c1C(=O)O)[C@@H]1C=C(C)CC[C@H]1C(C)(C)O2 [∆^9-THCa, ∆^9-tetrahydrocannabinolic acid] | 620 | partially displaced | 67 ± 11*^ % | 35 ± 11 |  | 4.1 ± 1.5 |  | 1.3 | 95 ± 1.5 |  | 15 ± 2.5 |  |  | 49 ± 7.2*^ % |  | bias for the inhibition of cAMP relative to βarrestin2 | EC50 (hCB1R [2]): > 10000 nM; agonist activity in hCB1R cAMP inhibition, in words (hCB1R [2]): weak partial agonist; EC50 (hCB1R [3]): > 10000 nM; anti-nociceptive effect (tail flick latency), in words (C57BL/6 mice [11]; 3 and 10 mg/kg i.p.): anti-nociceptive; anti-nociceptive effect (tail flick latency), in words (C57BL/6 mice [11]; dose range 0.1–10 mg/kg i.p., 15 min post-injection): dose-dependent increase in anti-nociceptive effects; total locomotion in the OFT, in words (C57BL/6 mice [12]; 3 and 10 mg/kg i.p.): hypolocomotive effects; time in the central quadrant of the OFT (modelled anxiolytic effect), in words (C57BL/6 mice [13]): anxiolytic-like effects; EC50 (hCB2R [6]): 1800 nM; agonist activity in hCB2R cAMP inhibition, in words (hCB2R [6]; [19]): weakly potent agonist; EC50 (hCB2R [7]): > 10000 nM
3 | CCCCCc1cc(O)c2c(c1)OC(C)(CCC=C(C)C)C=C2 (stereo not drawn) [CBC, cannabichromene] | 11 | partially displaced | 55 ± 3.7*^ % | 68 ± 9.7 | 190 | 6.9 ± 0.96 | > 10000 |  | 76 ± 5.4 | 7.1 | 12 ± 2.8 | > 10000 | bias for inhibition of cAMP relative to βarrestin2 | 9.7 ± 5.9 % | displaced [^3H]CP55,940 from hCB2R to an extent that was not different from CP55,940 | bias for the inhibition of cAMP relative to βarrestin2 | anti-nociceptive effect (tail flick latency), in words (C57BL/6 mice [11]; 3 mg/kg i.p., 15 min post-injection): weak anti-nociceptive effect; total locomotion in the OFT, in words (C57BL/6 mice [12]; 10 mg/kg i.p., 1 h post-injection): Hypolocomotive responses
4 | CCCCCCC(C)(C)c1ccc([C@@H]2C[C@H](O)CC[C@H]2CCCO)c(O)c1 [CP55,940, reference compound] |  |  | 0.0 ± 5.2% |  |  |  |  |  |  |  |  |  |  | 0.0 ± 6.2% |  |  | cataleptic response, % of maximum possible effect (MPE) (C57BL/6 mice [14]): 25%; effect on body temperature, in words (C57BL/6 mice [15]): decreased body temperature; anti-nociceptive effect (tail flick latency), in words (C57BL/6 mice [11]; 0.1 mg/kg i.p., 15 min post-injection): anti-nociceptive effects; total locomotion in the OFT, in words (C57BL/6 mice [12]; 0.1 mg/kg i.p., 1 h post-injection): reduced total locomotion

Source: article PMC7684313, “In vitro and in vivo pharmacological activity of minor cannabinoids isolated from Cannabis sativa” (Scientific Reports, 2020)
